By pKa is commonly meant the pH at which an ionisable group is half protonated. High values mean a group that holds its proton tightly, low ones a group that gives up its proton readily.

Data set [1] deals with human leukemic cells (CCRF-CEM cell line). The experiment in a line: C.C.R.F.-C.E.M. Cytotoxicity Assay, growth inhibition of human leukemic cells. It counts as cell-based. To be noted: read-out: IC50 (concentration giving 50% growth inhibition). An excerpt: In the Table, column 1 gives the name of the compound and column 2, the IC50 (concentration giving 50% growth inhibition) in mcg/ml.

The next data set deals with 6C3HED lymphosarcoma. The experiment in a line: activity against transplanted tumor 6C3HED lymphosarcoma in mice. It counts as in vivo. To be noted: intravenous, day one. The procedure:
Certain of the above compounds have also shown activity against a transplanted tumor, 6C3HED lymphosarcoma, in mice. Information as to this activity is summarized in Table 2 in which column 1 gives the name of the compound, column 2, the dose level in mg./kg. and column 3 the percent tumor inhabitation. All compounds were administered on day one by the intravenous route.

Data set [2] deals with vincristine-resistant leukemias. Particulars: marketed oncolytic agent; cited from earlier work.
Another data set can be described thus: pKa (66% DMF). It counts as physicochemical.
The test system of the next data set is growing tumor cells. Description: metaphase arrest, block of growing tumor cells in mitosis. Particulars: standard procedures; read-out: concentration at which compound blocked growing tumor cells in mitosis (metaphase arrest). The format is cell-based. The procedure:
The compounds of this invention in which Z is OH, NH2, NHNH2, or O--C1-3 alkyl have utility as anti-tumor compounds acti transplanted tumors in mice, as mitotic inhibitors and as cytotoxic agents. As evidence of such utility, the ability of N^2 -succinoyl 4-desacetyl VLB 3-carboxhydrazide methyl ester sulfate to cause metaphase arrest was measured by standard procedures.

Values after ≈ are worked out from the molar mass of the structure shown. Counter-ions that a name gives are not always drawn.

For the compound `CC[C@]1(O)C[C@@H]2CN(CCc3c([nH]c4ccccc34)[C@@](C(=O)OC)(c3cc4c(cc3OC)N(C)[C@H]3[C@@](O)(C(=O)NNC(=O)CCCCC(=O)OC)[C@H](O)[C@]5(CC)C=CCN6CC[C@]43[C@@H]65)C2)C1` [N^2-adipoyl-4-desacetyl VLB 3-carboxyhydrazide methylester], the IC50 in data set [1] was found to be 0.4 µg/mL (≈ 0.439 µM).
As for `CC[C@]1(O)C[C@@H]2CN(CCc3c([nH]c4ccccc34)[C@@](C(=O)OC)(c3cc4c(cc3OC)N(C)[C@H]3[C@@](O)(C(=O)NNC(=O)CCC(=O)O)[C@H](O)[C@]5(CC)C=CCN6CC[C@]43[C@@H]65)C2)C1` [N^2 --Succinoyl 4-desacetyl VLB 3-carboxhydrazide sulfate], the “% Tumor Inhibition” value with 6C3HED lymphosarcoma (0.625 mg/kg) came out at 13%; in the data set with 6C3HED lymphosarcoma (1.25 mg/kg) it was 5%; with 6C3HED lymphosarcoma (2.5 mg/kg), 5%; in the data set with 6C3HED lymphosarcoma (5 mg/kg), 33%; in the data set with 6C3HED lymphosarcoma (10 mg/kg), 77%; in the data set on 6C3HED lymphosarcoma (20 mg/kg) it was 100%. Further, the “% Tumor Inhibition” value with 6C3HED lymphosarcoma (40 mg/kg) was found to be 100%.
As for `CC[C@]1(O)C[C@@H]2CN(CCc3c([nH]c4ccccc34)[C@@](C(=O)OC)(c3cc4c(cc3OC)N(C)[C@H]3[C@@](O)(C(N)=O)[C@H](O)[C@]5(CC)C=CCN6CC[C@]43[C@@H]65)C2)C1` [vindesine, 4-desacetyl VLB 3-carboxamide], the “effectiveness in treating leukemias and neoplasms” value in data set [2] is reported as “effective in treating some vincristine-resistant leukemias in addition to many common neoplasms including germ-cell tumors”.
In the case of `CC[C@]1(O)C[C@@H]2CN(CCc3c([nH]c4ccccc34)[C@@](C(=O)OC)(c3cc4c(cc3OC)N(C)[C@H]3[C@@](O)(C(=O)NNC(=O)CCCC(=O)O)[C@H](O)[C@]5(CC)C=CCN6CC[C@]43[C@@H]65)C2)C1` [Example 8, N^2 -Glutaroyl 4-desacetyl VLB 3-carboxhydrazide], the pKa in the data set “pKa (66% DMF)” stood at 4.8.
For the compound `CC[C@]1(O)C[C@@H]2CN(CCc3c([nH]c4ccccc34)[C@@](C(=O)OC)(c3cc4c(cc3OC)N(C)[C@H]3[C@@](O)(C(=O)NNC(=O)CCC(=O)OC)[C@H](O)[C@]5(CC)C=CCN6CC[C@]43[C@@H]65)C2)C1` [N^2-succinoyl 4-desacetyl VLB 3-carboxhydrazide methyl ester], the minimal effective concentration in the data set on growing tumor cells is 0.2 µg/mL. Also, the “% Tumor Inhibition” value in the data set with 6C3HED lymphosarcoma (1 mg/kg) and in the data set with 6C3HED lymphosarcoma (.5 mg/kg) was 100% in each case. Moreover, the “% Tumor Inhibition (toxic dose)” value in the data set with 6C3HED lymphosarcoma (2 mg/kg) and with 6C3HED lymphosarcoma (4 mg/kg) was “Toxic” each time.
In the case of `CC[C@]1(O)C[C@@H]2CN(CCc3c([nH]c4ccccc34)[C@@](C(=O)OC)(c3cc4c(cc3OC)N(C)[C@H]3[C@@](O)(C(=O)NNC(=O)CCC(=O)O)[C@H](O)[C@]5(CC)C=CCN6CC[C@]43[C@@H]65)C2)C1` [Example 1, N^2 -Succinoyl-4-desacetyl VLB 3-carboxhydrazide], the pKa in the data set “pKa (66% DMF)” stood at 5.1.
For the compound `CC[C@]1(O)C[C@@H]2CN(CCc3c([nH]c4ccccc34)[C@@](C(=O)OC)(c3cc4c(cc3OC)N(C)[C@H]3[C@@](O)(C(=O)NNC(=O)CCCC(=O)O)[C@H](O)[C@]5(CC)C=CCN6CC[C@]43[C@@H]65)C2)C1` [N^2-glutaroyl 4-desacetyl VLB 3-carboxhydrazide sulfate], in data set [1], the IC50 came out at 0.1 µg/mL.

Values taken from US4675400A, “Bifunctional derivatives of 4-desacetyl indole-dihydroindole alkaloids” (Eli Lilly and Company, priority 1985, dated 1987).
